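1) Cells in 96-well plates. 2) Compound, 48 h, 5 concentrations. 3) Linear interpolation between surrounding doses. 4) Unreached endpoint = highest concentration. GI50 = concentration required for 50% inhibition of growth. The concentration for full growth arrest is given as TGI.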
The molecules below were run on OVCAR-3 ovarian (assay: DTP human tumour cell line panel, 48 h).
In the case of CNC(=O)C(C)C1CCC2(C)C=CC(=O)C(C)=C2C1O (stereo unspecified), the TGI is reported as > 100 µM. Work on CCOc1cc2c(cc1O)/C(=N\OC)C[C@@H]1[C@@H]2CC[C@]2(C)[C@@H](O)CC[C@@H]12 yielded a TGI of 2.29 µM. For CC1(C)N=C(/C(Cl)=[N+](/[O-])C(=O)c2ccc(F)cc2)C(C)(C)N1O, the TGI was 31.2 µM. For COC(=O)[C@H](Cc1c[nH]c2ccccc12)NP(=O)(O)OCC1C=CC(n2cc(C)c(=O)[nH]c2=O)O1 (stereo partly specified), the TGI was > 100 µM. For CCCNC1=C2CC(C)CC(OC)[C@@H](O)[C@H](C)/C=C(\C)C(OC(N)=O)C(OC)/C=C\C=C(/C)C(=O)NC(=CC1=O)C2=O (stereo partly specified), the GI50 was 0.613 µM and the TGI was 28.8 µM. For C[n+]1c2ccccc2c(/C=N\NS(=O)(=O)c2ccc(O)c(C(=O)O)c2)c2ccccc21, the TGI was > 100 µM. For O=C(Nc1ccc(C2=NCCN2)cc1)c1cncc(C(=O)Nc2ccc(C3=NCCN3)cc2)c1, the TGI was > 100 µM. In the case of Clc1ccc(/C=C/c2nc3ccccc3s2)cc1Cl, the TGI is reported as > 100 µM. C(/c1ccco1)=c1/nc(-c2ccccc2)n2c1nc1ccccc12 was tested, and the TGI was > 100 µM. With CC(=O)Nc1ccc(-c2nnc(SCC(=O)Nc3ccc([N+](=O)[O-])cc3)o2)cc1 the TGI was 28.1 µM. With N.N.N.N.O=[N+]([O-])[O-].[Co+3].[N-]=[N+]=[N-].[N-]=[N+]=[N-] the TGI was > 100 µM. With COC(=O)C1CCC(=O)N1C(c1ccccc1)c1ccc(OC)c(OC)c1 (stereo unspecified) the TGI was > 100 µM. Work on Cc1cccc(/C=N/NC(=S)Nc2ccccc2)n1 yielded a TGI of 13.6 µM. Cc1cc(=O)[nH]c(NN2C(Cl)C(=O)C2c2ccccc2O)n1 (stereo unspecified) was tested, and the TGI was 23.3 µM. With COc1ccc(/C=C2\CCC(C)C3=C2NC(=S)NC3c2ccc(OC)c(OC)c2)cc1OC (stereo unspecified) the TGI was > 31.6 µM. CC[C@@]1(C[C@H]2C[C@@]3(C(=O)OC)c4[nH]c5ccccc5c4CCN3C2=O)COC2(CCCCC2)O1 was tested, and the TGI was > 100 µM. Molecule COc1ccc2c(=O)c(O)c(-c3ccc(OC)c(OC)c3)oc2c1 has a TGI of 11.9 µM. With CC(C)CCCCCCCCCCCCC(=O)NCC(=O)NC1C(C)OC(Nc2ncnc3c2ncn3C)C(O)C1O (stereo unspecified) the TGI was > 100 µM. C=C(C1=CC(=O)C(C)(C)O1)[C@@H]1CC=C([C@@H]2CC[C@H]3[C@@]2(C)CC[C@H]2C(C)(C)C(=O)[C@H](O)C[C@]32C)[C@H](O)O1 gave a TGI of 2.4 µM. CC1=CC2C(O1)C1C(=O)C=CC(=O)C1=CC2[N+](=O)[O-] (stereo unspecified) gave a TGI of 30.7 µM. C=C(Br)C(C)(Cl)CCC(Br)C(C)(C)Cl (stereo unspecified) gave a TGI of 35.6 µM. For CN1CCN([C@H]2C[C@H]3[C@@H]4CC=C5C[C@@H](O)CC[C@]5(C)[C@H]4CC[C@]3(C)C2=O)CC1, the TGI was > 100 µM. CCOC(=O)Nn1c(C)nnc1-c1ccccc1 was tested, and the TGI was > 100 µM. With Cc1cn(C2CC(n3cc(Cn4cc(I)c(=O)[nH]c4=O)nn3)C(CO)O2)c(=O)[nH]c1=O (stereo unspecified) the TGI was > 100 µM. CNC(=O)OCC1=C(COC(=O)NC)C(C)N(c2ccc(OC)cc2)C1 (stereo unspecified) was tested, and the TGI was > 100 µM. For CCC12C=CCN3CCC4(C(=C(C(=O)OC)[C@@H]1O)Nc1ccccc14)C32 (stereo partly specified), the TGI was 3.89 µM. With O=C1CCC(=O)N1n1c(Cc2ccccc2)n[nH]c1=O the TGI was > 100 µM. With O=C(O)CN(CC(=O)O)C1CCCCC1N(CC(=O)O)CC(=O)NCCN=C=S (stereo unspecified) the TGI was > 100 µM. N=c1n(C(=O)N2CCCC2)c2cc(Cl)ccc2n1C1=NCCN1 was tested, and the TGI was > 100 µM. Cc1cn(C2CC(N(O)C(N)=O)C(CO)O2)c(=O)[nH]c1=O (stereo unspecified) was tested, and the TGI was > 100 µM. For O=C1CCC23CC(C=CC=C12)n1c(=O)n(-c2ccccc2)c(=O)n13 (stereo unspecified), the TGI was > 100 µM. CC(=O)NC1=C(NCCC(C)C)C(=O)c2ccccc2C1=O was tested, and the TGI was > 50 µM. For O=C(O)c1cccc2c1/C(=N/Nc1ccccc1)CC2, the TGI was > 100 µM. In the case of O=C(Cc1cccs1)N[C@@H]1C(=O)N2C(C(=O)OC(c3ccccc3)c3ccccc3)=C(CO)CS[C@H]12, the TGI is reported as > 100 µM. In the case of O=C([O-])CC(=O)[O-].O=C([O-])CC(=O)[O-].[K+].[Pd+2], the GI50 is reported as > 100 µM and the TGI is reported as > 100 µM.

What follows are molecules tested on RXF 393 renal (assay: DTP human tumour cell line panel, 48 h).
CC1C=C(CCCCCCCCCCCC[C@@H](O)[C@@H]2CC[C@@H]([C@@H]3CC[C@@H](C(O)CCCCCCCCCCCCC4=C[C@H](C)OC4=O)O3)O2)C(=O)O1 (stereo partly specified) was tested, and the TGI was > 100 µM. For CCNC(=S)N/N=C/c1cc([N+](=O)[O-])ccc1O, the TGI was > 100 µM. For COc1cc([C@@H]2OCC3C(c4ccc5c(c4)OCO5)OCC32)cc(OC)c1OC (stereo partly specified), the TGI was > 100 µM. For Cc1cc(N(CCC#N)CCC#N)ccc1/C(N=Nc1ccc(Cl)cc1)=N\NC(=O)c1ccccc1, the TGI was > 100 µM. Molecule CC[C@@]1(O)C(=O)OCc2c1cc1n(c2=O)Cc2c-1nc1ccccc1c2/C=N\NC(=O)CN has a TGI of 7.66 µM. In the case of CCc1ccc(CCN2CCCCC2)nc1, the TGI is reported as > 100 µM. CNC(=O)C(C)C1CCC2(C)C=CC(=O)C(C)=C2C1O (stereo unspecified) was tested, and the TGI was > 100 µM. Work on CC1(C)N=C(/C(Cl)=[N+](/[O-])C(=O)c2ccc(F)cc2)C(C)(C)N1O yielded a TGI of 28.8 µM. Work on CCCNC1=C2CC(C)CC(OC)[C@@H](O)[C@H](C)/C=C(\C)C(OC(N)=O)C(OC)/C=C\C=C(/C)C(=O)NC(=CC1=O)C2=O (stereo partly specified) yielded a GI50 of 13.8 µM and a TGI of 48.7 µM. With C[n+]1c2ccccc2c(/C=N\NS(=O)(=O)c2ccc(O)c(C(=O)O)c2)c2ccccc21 the TGI was > 100 µM. For O=C(Nc1ccc(C2=NCCN2)cc1)c1cncc(C(=O)Nc2ccc(C3=NCCN3)cc2)c1, the TGI was > 100 µM. C(/c1ccco1)=c1/nc(-c2ccccc2)n2c1nc1ccccc12 was tested, and the TGI was > 100 µM. CC(=O)Nc1ccc(-c2nnc(SCC(=O)Nc3ccc([N+](=O)[O-])cc3)o2)cc1 gave a TGI of 27.9 µM. Cc1cccc(/C=N/NC(=S)Nc2ccccc2)n1 was tested, and the TGI was 28.1 µM. With Cc1cc(=O)[nH]c(NN2C(Cl)C(=O)C2c2ccccc2O)n1 (stereo unspecified) the TGI was > 100 µM. With CC[C@@]1(C[C@H]2C[C@@]3(C(=O)OC)c4[nH]c5ccccc5c4CCN3C2=O)COC2(CCCCC2)O1 the TGI was > 100 µM. With CC(C)CCCCCCCCCCCCC(=O)NCC(=O)NC1C(C)OC(Nc2ncnc3c2ncn3C)C(O)C1O (stereo unspecified) the TGI was > 25.7 µM. With C=C(C1=CC(=O)C(C)(C)O1)[C@@H]1CC=C([C@@H]2CC[C@H]3[C@@]2(C)CC[C@H]2C(C)(C)C(=O)[C@H](O)C[C@]32C)[C@H](O)O1 the TGI was 3.59 µM. CC1=CC2C(O1)C1C(=O)C=CC(=O)C1=CC2[N+](=O)[O-] (stereo unspecified) showed a TGI of 28.2 µM. In the case of C=C(Br)C(C)(Cl)CCC(Br)C(C)(C)Cl (stereo unspecified), the TGI is reported as 65.1 µM. CN1CCN([C@H]2C[C@H]3[C@@H]4CC=C5C[C@@H](O)CC[C@]5(C)[C@H]4CC[C@]3(C)C2=O)CC1 was tested, and the TGI was > 100 µM. In the case of CCOC(=O)Nn1c(C)nnc1-c1ccccc1, the TGI is reported as > 100 µM. Cc1cn(C2CC(n3cc(Cn4cc(I)c(=O)[nH]c4=O)nn3)C(CO)O2)c(=O)[nH]c1=O (stereo unspecified) was tested, and the TGI was > 100 µM. With CNC(=O)OCC1=C(COC(=O)NC)C(C)N(c2ccc(OC)cc2)C1 (stereo unspecified) the TGI was > 100 µM. CCC12C=CCN3CCC4(C(=C(C(=O)OC)[C@@H]1O)Nc1ccccc14)C32 (stereo partly specified) showed a TGI of 2.65 µM. O=C1CCC(=O)N1n1c(Cc2ccccc2)n[nH]c1=O was tested, and the TGI was > 100 µM. O=C(O)CN(CC(=O)O)C1CCCCC1N(CC(=O)O)CC(=O)NCCN=C=S (stereo unspecified) was tested, and the TGI was > 100 µM. N=c1n(C(=O)N2CCCC2)c2cc(Cl)ccc2n1C1=NCCN1 was tested, and the TGI was > 100 µM. Cc1cn(C2CC(N(O)C(N)=O)C(CO)O2)c(=O)[nH]c1=O (stereo unspecified) was tested, and the TGI was > 100 µM. Work on COc1nc(N)c(C(=O)CCl)c(=O)n1C yielded a TGI of 20.6 µM. With O=C1CCC23CC(C=CC=C12)n1c(=O)n(-c2ccccc2)c(=O)n13 (stereo unspecified) the TGI was > 100 µM. With [N-]=[N+]=Nc1cc(=O)oc2ccccc12 the TGI was > 100 µM. With CC(=O)NC1=C(NCCC(C)C)C(=O)c2ccccc2C1=O the TGI was > 50 µM. O=C(O)c1cccc2c1/C(=N/Nc1ccccc1)CC2 was tested, and the TGI was > 100 µM. For O=C(Cc1cccs1)N[C@@H]1C(=O)N2C(C(=O)OC(c3ccccc3)c3ccccc3)=C(CO)CS[C@H]12, the TGI was > 100 µM. With O=C([O-])CC(=O)[O-].O=C([O-])CC(=O)[O-].[K+].[Pd+2] the GI50 was > 100 µM and the TGI was > 100 µM.

The molecules below were run on SK-MEL-28 melanoma (assay: DTP human tumour cell line panel, 48 h).
CC1C=C(CCCCCCCCCCCC[C@@H](O)[C@@H]2CC[C@@H]([C@@H]3CC[C@@H](C(O)CCCCCCCCCCCCC4=C[C@H](C)OC4=O)O3)O2)C(=O)O1 (stereo partly specified) was tested, and the TGI was > 100 µM. For CCNC(=S)N/N=C/c1cc([N+](=O)[O-])ccc1O, the TGI was > 100 µM. In the case of COc1cc([C@@H]2OCC3C(c4ccc5c(c4)OCO5)OCC32)cc(OC)c1OC (stereo partly specified), the TGI is reported as > 100 µM. In the case of CC[C@@]1(O)C(=O)OCc2c1cc1n(c2=O)Cc2c-1nc1ccccc1c2/C=N\NC(=O)CN, the TGI is reported as > 100 µM. For CCc1ccc(CCN2CCCCC2)nc1, the TGI was > 100 µM. CNC(=O)C(C)C1CCC2(C)C=CC(=O)C(C)=C2C1O (stereo unspecified) was tested, and the TGI was > 100 µM. For CCOc1cc2c(cc1O)/C(=N\OC)C[C@@H]1[C@@H]2CC[C@]2(C)[C@@H](O)CC[C@@H]12, the TGI was > 60.2 µM. CC1(C)N=C(/C(Cl)=[N+](/[O-])C(=O)c2ccc(F)cc2)C(C)(C)N1O gave a TGI of 32.4 µM. In the case of COC(=O)[C@H](Cc1c[nH]c2ccccc12)NP(=O)(O)OCC1C=CC(n2cc(C)c(=O)[nH]c2=O)O1 (stereo partly specified), the TGI is reported as > 100 µM. C[n+]1c2ccccc2c(/C=N\NS(=O)(=O)c2ccc(O)c(C(=O)O)c2)c2ccccc21 was tested, and the TGI was > 100 µM. For O=C(Nc1ccc(C2=NCCN2)cc1)c1cncc(C(=O)Nc2ccc(C3=NCCN3)cc2)c1, the TGI was > 31.6 µM. In the case of Clc1ccc(/C=C/c2nc3ccccc3s2)cc1Cl, the TGI is reported as > 100 µM. CC(=O)Nc1ccc(-c2nnc(SCC(=O)Nc3ccc([N+](=O)[O-])cc3)o2)cc1 showed a TGI of 27.7 µM. N.N.N.N.O=[N+]([O-])[O-].[Co+3].[N-]=[N+]=[N-].[N-]=[N+]=[N-] was tested, and the TGI was > 100 µM. COC(=O)C1CCC(=O)N1C(c1ccccc1)c1ccc(OC)c(OC)c1 (stereo unspecified) was tested, and the TGI was > 100 µM. In the case of Cc1cccc(/C=N/NC(=S)Nc2ccccc2)n1, the TGI is reported as > 100 µM. With Cc1cc(=O)[nH]c(NN2C(Cl)C(=O)C2c2ccccc2O)n1 (stereo unspecified) the TGI was > 65.4 µM. For COc1ccc(/C=C2\CCC(C)C3=C2NC(=S)NC3c2ccc(OC)c(OC)c2)cc1OC (stereo unspecified), the TGI was > 31.6 µM. COc1ccc2c(=O)c(O)c(-c3ccc(OC)c(OC)c3)oc2c1 was tested, and the TGI was > 100 µM. In the case of CC(C)CCCCCCCCCCCCC(=O)NCC(=O)NC1C(C)OC(Nc2ncnc3c2ncn3C)C(O)C1O (stereo unspecified), the TGI is reported as > 100 µM. C=C(C1=CC(=O)C(C)(C)O1)[C@@H]1CC=C([C@@H]2CC[C@H]3[C@@]2(C)CC[C@H]2C(C)(C)C(=O)[C@H](O)C[C@]32C)[C@H](O)O1 showed a TGI of 12.2 µM.

From PubChem BioAssay (NCI)
